Results as given in patent US20230416258A1, “BENZ[…], AND PREPARATION METHOD THEREFOR AND USE THEREOF” (CHINA PHARMACEUTICAL UNIVERSITY, priority 2020, published 2023).
Read-outs that look alike come from different tables or passages of the source.

Tests used:
KM mice = test: Test for drug-induced disappearance of righting reflex in mice; type: in vivo; conditions: single rapid bolus via tail vein
In short: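 Female KM mice (18–25 g), randomly grouped, given a single rapid bolus via tail vein. Latency (administration to loss of righting reflex) and duration (loss to recovery) recorded.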

[1] = tested on: GABA-activated Cl− current (GABAA receptor) in HEK 293T cells; test: Effect of drugs on GABA-activated current in cells by cell patch clamp; type: cell-based; conditions: for Enhancement percentage Emax for 2 μM GABA current (within 3-30 μM): corresponding concentration 20 μM
Method: Test compounds were dissolved at various concentrations in an extracellular buffer (140 mM NaCl, 4.7 mM KCl, 10 mM HEPES, 2 mM CaCl2), 10 mM glucose, 1 mM MgCl2, pH 7.4). HEK 293T cells were seeded on glass coverslips and cultured in DMEM media at 37° C. with 5% CO2 for 24 h. GABA Cl^− current was subjected to whole cell recording using an HEKA EPC 10USB patch clamp amplifier. 2 μM GABA was used for exciting Cl^− current, with the membrane potential clamped at −60 mV. The cells were treated with the test compound and 2 μM GABA simultaneously, and the induction effect on and Emax of Cl^− current in the same cell were recorded.
Maximum enhancement percentage Emax for 2 μM GABA current and corresponding concentration (μM): 100% for normal humans. The greater the percentage, the lower the corresponding concentration, and the greater the depth of anesthesia.

SD rats [2] = test: Induction of anesthesia in rats by continuous infusion of drug for 20 min; type: in vivo; conditions: initial dose 20 mg/kg bolus, maintenance dose 0.2 (mg/kg)/min for 20 min, after infusion completed
Method: SD rats (male, 200-280 g) were randomly grouped and subjected to administration of an initial dose by rapid bolus via the tail vein, followed by a continuous infusion with a maintenance dose for 20 min.
After the infusion was completed, the duration of the righting reflex and the time from wake-up to recovery in rats were recorded.

hCMEC/D3 cells = test: Rate of drug passing through in vitro blood-brain barrier (Transwell); type: in vitro ADME; conditions: hCMEC/D3 monolayer, compound 0.1 mg/mL
Method: A Transwell device (pore size: 5.0 μm) was placed in a 24-well cell culture well; then hCMEC/D3 cells at 1×10^5 cells/mL were transferred to the upper microwells of Transwell at 150 μL/well, and cell culture medium was added to the lower microwells. After the bottom was covered by a single layer of the cells, the medium in the wells was replaced with EBM-2 complete medium containing 1% FBS, and the cells were cultured in a CO2 incubator for 10 days until a fully dense single layer of the cells was formed. When a fully dense single layer of the cells was formed, the compound at 0.1 mg/mL was added to the lower medium, and after 5 min, the concentration of the compound in the upper medium was measured to calculate the permeability:
Pcompound%=Cupper compound/Clower compound×100%

[3] = In vitro plasma half-life of drug; type: in vitro ADME, SD rats; conditions: plasma (heparin sodium); SD rat plasma, 37° C.
Method: Preparation of plasma: after the SD rats were fasted and kept with water for 12 h, blood was collected through orbital venous plexus. The freshly collected blood was added into a centrifuge tube containing heparin sodium and centrifuged at 5000 rpm for 10 min at 4° C. The supernatant was slowly pipetted and subpackaged. Finally, the collected SD rat plasma was sealed, marked, and stored at −20° C. for later use.
Preparation of target compound sample: the target compound was precisely weighed by an analytical balance and prepared into a stock solution at a concentration of 2 mg/mL (solvent: Vacetone:VTween 80:Vnormal saline=1:1:3) for later use.
Determination of in vitro half-life of target compound sample: 20 μL of test compound stock solution and 80 μL of rat plasma were mixed uniformly. Nine parallel ep tubes were taken, marked as corresponding test tubes of 0 min, 1 min, 2 min, 3 min, 5 min, 10 min, 15 min, 20 min, and 30 min, respectively, and placed in a water bath at 37° C. for incubation for 0 min, 1 min, 2 min, 3 min, 5 min, 10 min, 15 min, 20 min, and 30 min, respectively. 50 μL of mixed solution were taken from the corresponding ep tube at each time point, and […] of acetonitrile was added for precipitating protein. The mixture was vortexed for 10 min using a mixer and centrifuged at 12000 rpm for 15 min. Then, the supernatant was centrifuged at 12000 rpm for 10 min. The optimal detection method for the target compound in the MRM mode was determined using Intellistat software in UPLC-MS/MS, the peak area of the corresponding mass spectrum was integrated, and the plasma half-life of the compound was calculated.

SD rats [4] = test: Test for drug-induced disappearance of righting reflex in rats; type: in vivo; conditions: single rapid bolus via tail vein
Excerpt: In anesthetic drug experiments, latency generally refers to the time from the start of administration to the loss of consciousness of the subject. The shorter latency is preferred, indicating a rapid onset of action after administration. The duration of anesthesia generally refers to the duration of time from the loss of consciousness to the restoration of consciousness of the subject. The duration of the drug will vary from animal model to animal species. Too long anesthesia may produce adverse cardiovascular and respiratory responses, such as adverse neurological effects to the subject, including sleepiness and dizziness; meanwhile, too short duration of anesthesia may affect the anesthesia effect, causing problems such as increase of anesthesia dosage during the operation.
SD rats (male, 200-280 g) were randomly grouped and subjected to a single administration by rapid bolus via the tail vein. The latency and duration of righting reflex in the rats were recorded.

[5] = read-out: Positive enhancement EC50 (μM) for 2 μM GABA-induced current, −60 mV
[6] = 2 μM GABA, −60 mV, read-out: Positive enhancement EC50 (μM) for 2 μM GABA-induced current

Work on COC(=O)CC[C@@H]1N=C(c2ccccc2F)c2cc(Br)ccc2-n2c(S)nnc21 [Compound 4, methyl (S)-3-(8-bromo-6-(2-fluorophenyl)-1-mercapto-4H-benzo[f][1,2,4]triazolo[4,3-a][1,4]diazepin-4-yl)propionate] yielded a Duration (KM mice; 30 mg/kg) of 9.21 min, a Latency (KM mice; 30 mg/kg) of 0.88 min and an EC50 [1, 5] of 0.69 µM. The “Enhancement percentage Emax for 2 μM GABA current (within 3-30 μM)” value (shortened to “Enhancement percentage Emax”) ([1]; −60 mV) was 252% (20 μM), the Duration of anesthesia (SD rats [2]) was 5.21 min and the “Time from wake-up to recovery” value (SD rats [2]) was 15.6 min. The “In vitro blood-brain barrier, compound permeability at 5 min” value (shortened to “In vitro blood-brain barrier”) (hCMEC/D3 cells) was 68.6%, the half-life at 0.4 mg/mL [3] was 104 s and the Latency (SD rats [4]) was 0.35 min.

CCCSc1nnc2n1-c1ccc(Br)cc1C(c1ccccc1Cl)=N[C@H]2CCC(=O)OC [Compound 30, methyl (S)-3-(8-bromo-6-(2-chlorophenyl)-1-(propylthio)-4H-benzo[f][1,2,4]triazolo[4,3-a][1,4]diazepin-4-yl)propionate] gave a Duration (KM mice; 30 mg/kg) of 7.44 min, a Latency (KM mice; 30 mg/kg) of 0.42 min and a half-life at 0.4 mg/mL [3] of 27 s.

Work on COC(=O)CC[C@@H]1N=C(c2ccccc2Cl)c2cc(Cl)ccc2-n2c(SCCO)nnc21 [Compound 32, methyl (S)-3-(8-chloro-6-(2-chlorophenyl)-1-((2-hydroxyethyl)thio)-4H-benzo[f][1,2,4]triazolo[4,3-a][1,4]diazepin-4-yl)propionate] yielded a Duration (KM mice; 30 mg/kg) of 20.73 min, a Latency (KM mice; 30 mg/kg) of 0.73 min and a half-life at 0.4 mg/mL [3] of 16.2 s.

Molecule COC(=O)CC[C@@H]1N=C(c2ccccc2Cl)c2cc(Br)ccc2-n2c(SCCO)nnc21 [Compound 33, methyl (S)-3-(8-bromo-6-(2-chlorophenyl)-1-((2-hydroxyethyl)thio)-4H-benzo[f][1,2,4]triazolo[4,3-a][1,4]diazepin-4-yl)propionate] has a Duration (KM mice; 60 mg/kg) of 6.41 min, a Latency (KM mice; 60 mg/kg) of 0.21 min and a Duration (KM mice; 100 mg/kg) of 12.38 min. The Latency (KM mice; 100 mg/kg) was 0.22 min, the EC50 [1, 5] was 0.44 µM and the “Enhancement percentage Emax” value ([1]; −60 mV) was 279% (20 μM). The Duration of anesthesia (SD rats [2]) was 17.3 min, the “Time from wake-up to recovery” value (SD rats [2]) was 20.2 min and the “In vitro blood-brain barrier” value (hCMEC/D3 cells) was 83.4%. For the same molecule, the half-life at 0.4 mg/mL [3] was 53.4 s and the Latency (SD rats [4]) was 0.52 min.

In the case of COC(=O)CC[C@@H]1N=C(c2ccccc2Cl)c2cc([N+](=O)[O-])ccc2-n2c(SCCN)nnc21 [Compound 37, methyl (S)-3-(8-nitro-6-(2-chlorophenyl)-1-((2-aminoethyl)thio)-4H-benzo[f][1,2,4]triazolo[4,3-a][1,4]diazepin-4-yl) propionate], the Duration (KM mice; 30 mg/kg) is reported as 7.63 min, the Latency (KM mice; 30 mg/kg) is reported as 0.49 min and the Duration (KM mice; 60 mg/kg) is reported as 7.68 min. For the same molecule, the Latency (KM mice; 60 mg/kg) was 0.21 min, the EC50 [1, 6] was 0.53 µM and the “Enhancement percentage Emax” value ([1]; −60 mV) was 267% (20 μM). For the same molecule, the Duration of anesthesia (SD rats [2]) was 6.68 min, the “Time from wake-up to recovery” value (SD rats [2]) was 10.5 min and the “In vitro blood-brain barrier” value (hCMEC/D3 cells) was 84.6%. The Duration (SD rats [4]) was 25.1 min and the Latency (SD rats [4]) was 0.22 min.

In the case of COC(=O)CC[C@@H]1N=C(c2ccccc2F)c2cc(Cl)ccc2-n2c(SCCN3CCOCC3)nnc21 [Compound 51, methyl (S)-3-(8-chloro-6-(2-fluorophenyl)-1-((2-morpholinoethyl)thio)-4H-benzo[f][1,2,4]triazolo[4,3-a][1,4]diazepin-4-yl)propionate], the Duration (KM mice; 60 mg/kg) is reported as 8.46 min, the Latency (KM mice; 60 mg/kg) is reported as 0.25 min and the Duration (KM mice; 100 mg/kg) is reported as 14.6 min. For the same molecule, the Latency (KM mice; 100 mg/kg) was 0.16 min, the EC50 [1, 5] was 0.41 µM and the “Enhancement percentage Emax” value ([1]; −60 mV) was 304% (20 μM). For the same molecule, the Duration of anesthesia (SD rats [2]) was 8.36 min, the “Time from wake-up to recovery” value (SD rats [2]) was 22.6 min and the “In vitro blood-brain barrier” value (hCMEC/D3 cells) was 78.6%. The Latency (SD rats [4]) was 0.27 min.

COC(=O)CC[C@@H]1N=C(c2ccccc2Cl)c2cc(Cl)ccc2-n2c(SCCN3CCCC3)nnc21 [Compound 119, methyl (S)-3-(8-chloro-6-(2-chlorophenyl)-1-(2-((pyrrolidin-1-yl)ethyl)thio)-4H-benzo[f][1,2,4]triazolo[4,3-a][1,4]diazepin-4-yl)propionate] showed a Duration (KM mice; 30 mg/kg) of 30.86 min, a Latency (KM mice; 30 mg/kg) of 0.46 min and an EC50 [1, 6] of 0.43 µM. The “Enhancement percentage Emax” value ([1]; −60 mV) was 278% (20 μM), the Duration of anesthesia (SD rats [2]) was 12.83 min and the “Time from wake-up to recovery” value (SD rats [2]) was 32.7 min. The “In vitro blood-brain barrier” value (hCMEC/D3 cells) was 83.3%, the Duration (SD rats [4]) was 13.27 min and the Latency (SD rats [4]) was 0.43 min.

With COC(=O)CC[C@@H]1N=C(c2ccccc2Cl)c2cc(Cl)ccc2-n2c(SCC(=O)N3CCN(C)CC3)nnc21 [Compound 129, methyl (S)-3-(8-chloro-6-(2-chlorophenyl)-1-((2-(4-methylpiperazin-1-yl)2-oxyethyl)thio)-4H-benzo[f][1,2,4]triazolo[4,3-a][1,4]diazepin-4-yl)propionate] the Duration (KM mice; 30 mg/kg) was 13.27 min, the Latency (KM mice; 30 mg/kg) was 0.56 min and the EC50 [1, 6] was 0.42 µM. The “Enhancement percentage Emax” value ([1]; −60 mV) was 257% (20 μM), the Duration of anesthesia (SD rats [2]) was 10.22 min and the “Time from wake-up to recovery” value (SD rats [2]) was 17.7 min. For the same molecule, the “In vitro blood-brain barrier” value (hCMEC/D3 cells) was 75.9%, the Duration (SD rats [4]) was 17.28 min and the Latency (SD rats [4]) was 0.37 min.

With COC(=O)CC[C@@H]1N=C(c2ccccc2Cl)c2cc(Cl)ccc2-n2c(Sc3cn(C)cn3)nnc21 [Compound 141, methyl (S)-3-(8-chloro-6-(2-chlorophenyl)-1-((1-methyl-1H-imidazol-4-yl)thio)-4H-benzo[f][1,2,4]triazolo[4,3-a][1,4]diazepin-4-yl)propionate] the Duration (KM mice; 30 mg/kg) was 8.76 min, the Latency (KM mice; 30 mg/kg) was 0.74 min and the EC50 [1, 5] was 0.61 µM. For the same molecule, the “Enhancement percentage Emax” value ([1]; −60 mV) was 295% (20 μM), the Duration of anesthesia (SD rats [2]) was 13.21 min and the “Time from wake-up to recovery” value (SD rats [2]) was 22.19 min. The “In vitro blood-brain barrier” value (hCMEC/D3 cells) was 76.6% and the Latency (SD rats [4]) was 0.21 min.

Molecule COC(=O)CC[C@@H]1N=C(c2ccccc2F)c2cc(Br)ccc2-n2c1n[nH]c2=S [Tautomer of compound 4, methyl (S)-3-(8-bromo-6-(2-fluorophenyl)-1-thio-2,4-dihydro-1H-benzo[f][1,2,4]triazolo[4,3-a][1,4]diazepin-4-yl) propionate] has a Duration (KM mice; 30 mg/kg) of 2.95 min, a Latency (KM mice; 30 mg/kg) of 0.38 min and an EC50 [1, 6] of 0.65 µM. The “Enhancement percentage Emax” value ([1]; −60 mV) was 238% (20 μM), the Duration of anesthesia (SD rats [2]) was 4.84 min and the “Time from wake-up to recovery” value (SD rats [2]) was 10.3 min. The “In vitro blood-brain barrier” value (hCMEC/D3 cells) was 75.8%, the Duration (SD rats [4]) was 15.4 min and the Latency (SD rats [4]) was 0.48 min.
